From BindingDB's records for doi:10.1016/j.bmcl.2010.10.018 (Merck Frosst Centre For Therapeutic Research, 2010)

Assay: Antagonist activity at TP receptor in human platelet assessed as thromboxane A2- induced platelet aggregation

IC50: 19.4 µM
Structure (SMILES): C[C@@H](c1ccc(C(F)(F)F)cc1)n1c2c(c3cc(F)cc(S(C)(=O)=O)c31)CCC[C@@H]2CC(=O)O [2-((R)-6-fluoro-8-(methylsulfonyl)-9-((S)-1-(4-(trifluoromethyl)phenyl)ethyl)-2,3,4,9-tetrahydro-1H-carbazol-1-yl)acetic acid]
